The record followed here is patent US4570005A, “Process for the preparation of 2-arylpropyl ether or thioether derivatives” (priority 1980, dated 1986).

One data set deals with tobacco cutworm. Description: Test 1: Effect on Tobacco Cutworm (leaf immersion), mortality after 24 hours. The data set is classed as in vivo. Conditions: second-instar larvae, 25° C. The procedure:
(§1) To a mixture of 20 parts of the compound of the present invention and 20 parts of Sorpol SM-200 (registered tradename for the product supplied by Toho Chemical Industrial Co., Ltd.) was added 60 parts of xylol, and the mixture was suffciently blended. The obtained emulsifiable concentrate was diluted at a predetermined concentration with distilled water, and the obtained dilution was used.
An emulsifiable concentrate of a test compound prepared according to the method described in Formulation Example 1 was diluted to a concentration of 100 or 20 ppm. Sweet-potato leaves were immersed in the dilution for 10 seconds, air-dried and placed in a plastic cup having a diameter of 10 cm. Then second-instar larvae of tobacco cutworm were set free in the cup. The cup was allowed to stand still in a thermostat chamber maintained at 25° C. After 24 hours, the numbers of killed and living larvae were counted and the mortality was calculated. The obtained result was expressed by an average value obtained from the mortality calculated in three test cups.

Data set [1] is described as follows: Test 9: Toxicity Test (acute oral toxicity, mice). The conditions noted are these: mouse, in vivo, po. The procedure: A predetermined amount of a solution or suspension of a test compound in corn oil was orally administered to male mice having a body weight of 19 to 23 g (0.2 ml per 10 g of the body weight). After 7 days, the number of killed mice was counted and the influences on the mice were examined.

Data set [2] has as its system resistant green rice leafhopper (collected at Nakagawara). Description: Test 3: Effect on Resistant Green Rice Leafhopper (collected at Nakagawara). Conditions: Nephotettix cincticeps, 24 h, read-out: Mortality (%), Green Rice Leafhopper Collected at Nakagawara. It counts as in vivo, Nephotettix cincticeps Uhler (Green rice leafhopper). The procedure:
as §1
(§2) Seedlings (having 2 to 3 leaves) of paddy rice were hydroponically cultured in a pot having a diameter of 5 cm. A chemical dilution having a concentration of 100 or 20 ppm, prepared in the same manner as described in Test 1, was applied with a sprayer at a rate of 3 ml per pot. The treated seedlings were air-dried and covered with a metal net cylinder, and female adults of resistant green rice leafhopper (collected at Nakagawara) and sensitive green rice leafhopper (collected at Chigasaki) were set, respectively, free in the pot at a density of 10 adults per pot. After 24 hours, the numbers of killed and living adults were counted and the mortality was calculated. The test was made on three pots and the average value was calculated.

For data set [3], the system named is sensitive green rice leafhopper (collected at Chigasaki). Description: whole plant or invertebrate. Conditions: Nephotettix cincticeps, sensitive female adults, 24 hours, read-out: Mortality (%), Green Rice Leafhopper Collected at Chigasaki. The data set is classed as in vivo. The procedure: as §1, §2
The test system of another data set is diamond back moth. Description: Test 4: Effect on Diamond Back Moth. It counts as in vivo. The conditions noted are these: Plutella, third-instar larvae, 24 hours, read-out: Mortality (%). The procedure: as §1
Cabbage leaves were spread in a plastic cup, and 10 third-instar larvae of diamond back moth were set free in the cup.
A chemical dilution having a concentration of 100 or 20 ppm, prepared in the same manner as described in Test 1, was applied from an applicator at a rate of 3 ml per cup.
After scattering of the chemical dilution, the cup was covered, and after 24 hours, the numbers of killed and living larvae were counted and the mortality was calculated. The test was made on three cups and the average value was calculated.

In the data set with tobacco cutworm, `CC(C)(COCc1cccc(Oc2ccccc2)c1)c1ccc(C#N)cc1` [Compound 54, 3-Phenoxybenzyl 2-(4-cyanophenyl)-2-methylpropyl ether] registered a mortality at 20 ppm of 100% and a mortality at 100 ppm of 100%. Moreover, the LD50 at 168 h in data set [1] is greater than 500 mg/kg.

Take `CC(C)(COCc1cccc(Oc2ccc(F)cc2)c1)c1ccc(F)c(Cl)c1` [Compound 58, 3-(4-Fluorophenoxy)benzyl 2-(3-chloro-4-fluorophenyl)-2-methylpropyl ether]: the mortality at 20 ppm (with tobacco cutworm; in data set [2]; in data set [3]) was 100% each time. Also, the mortality at 100 ppm (with tobacco cutworm; in data set [2]; in data set [3]) was 100% in each case. The LD50 at 168 h in data set [1] was greater than 500 mg/kg.

For the molecule `CC(=O)c1ccc(C(C)(C)COCc2cccc(Oc3ccccc3)c2)cc1` [Compound 60, 3-Phenoxybenzyl 2-(4-acetylphenyl)-2-methylpropyl ether], the mortality at 20 ppm in the data set on tobacco cutworm was determined as 80%; in data set [2], 90%; in data set [3], 60%. Further, the mortality at 100 ppm (in the data set with tobacco cutworm; in data set [2]; in data set [3]) was 100% throughout. In data set [1], this molecule returned an LD50 at 168 h greater than 500 mg/kg.

As for `CCOc1ccc(C(C)(C)COCc2cccc(Oc3ccc(Br)cc3)c2)cc1` [Compound 66, 3-(4-Bromophenoxy)benzyl 2-(4-ethoxyphenyl)-2-methylpropyl ether], the mortality at 20 ppm in the data set on diamond back moth was 60%; with tobacco cutworm, 100%; in data set [2] it was 100%; in data set [3] it was 100%. Also, the mortality at 100 ppm (in the data set with diamond back moth; in the data set on tobacco cutworm; in data set [2]; in data set [3]) was 100% throughout. Further, in data set [1], the LD50 at 168 h is greater than 500 mg/kg.

As to `CCC(C)Oc1ccc(C(C)(C)COCc2cccc(Oc3ccccc3)c2)cc1` (stereo not shown) [Compound 70, 3-Phenoxybenzyl 2-[4-(sec-butoxy)phenyl]-2-methylpropyl ether], the results for the mortality at 20 ppm (in the data set on tobacco cutworm; in data set [2]; in data set [3]) were 90%, 100% and 100%, respectively. Further, the mortality at 100 ppm (with tobacco cutworm; in data set [2]; in data set [3]) was 100% throughout. Also, in data set [1], the LD50 at 168 h was greater than 500 mg/kg.

Turning to `Cc1ccc2cc(C(C)(C)COCc3cccc(Oc4ccccc4)c3)ccc2c1` [Compound 71, 3-Phenoxybenzyl 2-(6-methyl-2-naphthyl)-2-methylpropyl ether], the mortality at 20 ppm in the data set with diamond back moth is 60%; in data set [2], 100%; in data set [3], 100%. Also, the mortality at 100 ppm (in the data set with diamond back moth; in data set [2]; in data set [3]) was 100% throughout. Besides, in data set [1], the median lethal dose (LD50) at 168 h is greater than 500 mg/kg.

In the data set on tobacco cutworm, `CC(C)(COCc1cccc(Oc2ccccc2)c1)c1ccc(F)c(Cl)c1` [Compound 75] returned a mortality at 20 ppm of 80% and a mortality at 100 ppm of 100%. Further, the LD50 at 168 h in data set [1] was greater than 500 mg/kg.

In the data set on tobacco cutworm, `CC(C)(COCc1cccc(Oc2ccccc2)c1)c1ccc(Oc2ccccc2)cc1` [Compound 76, 3-Phenoxybenzyl 2-(4-phenoxyphenyl)-2-methylpropyl ether] returned a mortality at 20 ppm of 90% and a mortality at 100 ppm of 100%. Further, the LD50 at 168 h in data set [1] is greater than 500 mg/kg.

`CCOCOc1ccc(C(C)(C)COCc2cccc(Oc3ccccc3)c2)cc1` [Compound 81, 3-Phenoxybenzyl 2-(4-ethoxymethoxyphenyl)-2-methylpropyl ether]: in the data set with tobacco cutworm, the mortality at 20 ppm was 90% and the mortality at 100 ppm was determined as 100%. The molecule further gave a 50% lethal dose (LD50) at 168 h in data set [1] greater than 500 mg/kg.

`COCOc1ccc(C(C)(C)COCc2cccc(Oc3ccccc3)c2)cc1` [Compound 83, 3-Phenoxybenzyl 2-(4-methoxymethoxyphenyl)-2-methylpropyl ether]: in the data set with tobacco cutworm, the mortality at 20 ppm was 100% and the mortality at 100 ppm worked out at 100%. Further, the 50% lethal dose (LD50) at 168 h in data set [1] is greater than 500 mg/kg.

Turning to `CCOC(C)c1ccc(C(C)(C)COCc2cccc(Oc3ccccc3)c2)cc1` (stereo not shown) [Compound 84, 3-Phenoxybenzyl 2-[4-(1-ethoxyethyl)phenyl]-2-methylpropyl ether], in the data set with diamond back moth, the mortality at 20 ppm stood at 60% and the mortality at 100 ppm was 100%. The molecule further returned an LD50 at 168 h in data set [1] greater than 500 mg/kg.

In the case of `CCOC(=O)c1ccc(C(C)(C)COCc2cccc(Oc3ccccc3)c2)cc1` [Compound 85, 3-Phenoxybenzyl 2-(4-ethoxycarbonylphenyl)-2-methylpropyl ether], the mortality at 20 ppm amounted to 80% in the data set with tobacco cutworm, 100% in data set [2] and 100% in data set [3]. In addition, the mortality at 100 ppm (with tobacco cutworm; in data set [2]; in data set [3]) was 100% in each case. In data set [1], this molecule came in with a 50% lethal dose (LD50) at 168 h greater than 500 mg/kg.

As for `CC(C)(COCc1cccc(Oc2ccccc2)c1)c1ccc(OC(Cl)=C(Cl)Cl)cc1` [Compound 92, 3-Phenoxybenzyl 2-[(1,2,2-trichlorovinyloxy)phenyl]-2-methylpropyl ether], in the data set with tobacco cutworm, the mortality at 20 ppm worked out at 90% and the mortality at 100 ppm is 100%. In data set [1], this molecule returned an LD50 at 168 h greater than 500 mg/kg.

`CCOc1c(C)cc(C(C)(C)COCc2cccc(Oc3ccccc3)c2)cc1C` [Compound 97, 3-Phenoxybenzyl 2-(4-ethoxy-3,5-dimethylphenyl)-2-methylpropyl ether]: the mortality at 20 ppm (in the data set on tobacco cutworm; in data set [2]; in data set [3]) was 100% in each case. For the same molecule, the mortality at 100 ppm (in the data set on tobacco cutworm; in data set [2]; in data set [3]) was 100% each time. The same molecule registered an LD50 at 168 h in data set [1] greater than 500 mg/kg.

As for `CCOc1ccc(C(C)(C)COCc2cccc(Oc3ccccc3)c2)cc1OC` [Compound 99, 3-Phenoxybenzyl-2-(4-ethoxy-3-methoxyphenyl)-2-methylpropyl ether], in the data set on diamond back moth, the mortality at 20 ppm turned out to be 80% and the mortality at 100 ppm came to 100%. In the data set on tobacco cutworm, the mortality at 20 ppm came to 100% and the mortality at 100 ppm is 100%. Also, the LD50 at 168 h in data set [1] was greater than 500 mg/kg.

Turning to `CCSc1ccc(C(C)(C)COCc2cccc(Oc3ccccc3)c2)cc1` [Compound 100, 3-Phenoxybenzyl 2-(4-ethylthiophenyl)-2-methylpropyl ether], the values for the mortality at 20 ppm (in the data set with tobacco cutworm; in data set [2]; in data set [3]) were 80%, 95% and 80%, respectively. Also, the mortality at 100 ppm (in the data set with tobacco cutworm; in data set [2]; in data set [3]) was 100% in each case. Besides, in data set [1], the median lethal dose (LD50) at 168 h was greater than 500 mg/kg.

`CC(C)(COCc1cccc(Oc2ccccc2)c1)c1ccc(OCCCl)cc1` [Compound 108, 3-Phenoxybenzyl 2-[4-(2-chloroethoxy)phenyl]-2-methylpropyl ether]: the figures for the mortality at 20 ppm (in the data set with tobacco cutworm; in data set [2]; in data set [3]) were 100%, 100% and 95%, respectively. Further, the mortality at 100 ppm (in the data set with tobacco cutworm; in data set [2]; in data set [3]) was 100% in each case. Moreover, the median lethal dose (LD50) at 168 h in data set [1] is greater than 500 mg/kg.

The term mortality denotes the share of the test organisms that died. What is called LD50 is the dose expected to kill half of the subjects tested. A higher LD50 goes with lower toxicity.
